The subject of one series is cells under stress. Briefly: Production of peroxides in cells under stress. The class given is cell-based.
The next series concerns 3×Tg-AD mice. Briefly: Learning and memory in 3×Tg AD mice (novel object recognition, Morris water maze). The class given is in vivo. As to conditions: 16-month old 3×Tg-AD females. As for the experimental part: Both 16-month old 3×Tg-AD and background-matched wild type (WT) mice (females) were fed with TMPcontaining or nutrients matched control for 60 days as described in FIG. 3. (A) On day 61, all the mice were tested for object recognition as previously described. Briefly, mice (n=14 for each group) were habituated to a 60×30 cm container for 5 min. Two identical objects were placed in the bottom of the cage as mirror images of each other. The animal was trained for 5 min followed by a 5 min retention interval in the home cage. Then one of the objects in the test container was replaced with a novel object. During the 3-min probe trial, the mouse was placed in the cage and time spent investigating both objects was measured. A recognition index (R1) score is depicted as: (TimeN (in seconds for novel object)/TimeTotal (in seconds for both old and novel objects))×100. (B-D) Starting on day 62, all the mice were trained for 9 days on the Morris water maze (MWM) exactly as described for the behavior testing. […] (C) MWMprobe trial for number of platform location crosses, and (D) MWM probe trial for time spent in the target quadrant. As shown by the p values, (*) indicates significant improvement by TMP treatments with respect to the corresponding controls.
FIG. 21A-D: Improvement of learning and memory in aged 3×Tg AD mice by TMP treatment. Novel object recognition task was performed. A recognition index (R1) score is depicted as: [TimeN (in seconds for novel object)/TimeTotal (in seconds for both old and novel objects)]×100. B-D Starting on day 62, all the mice were trained for 9 days on the Morris water maze (MWM) for the behavior testing. […] (C) MWM probe trial for number of platform location crosses, and (D) MWM probe trial for time spent in the target quadrant. As shown by the p values, (*) indicates significant improvement by the compound treatments with respect to the corresponding controls.
TMP improves pathology in brains of 3×Tg-AD mice and results in increased memory and learning (See FIGS. 3, 4, and 10). In these mice, the earliest pathological hallmark is the accumulation of intraneuronal Aβ in the hippocampus, cortex and amygdala in 4 month old 3×Tg-AD homozygous mice. […] Between 4-6 months of age 3×Tg-AD homozygous mice develop diffuse amyloid plaques in the neocortex. At 6 months the retention deficits are associated with significant impairments in spatial learning of the Morris Water Maze task. […] Brain and retina pathology was evaluated by immunohistochemistry with specific antibodies and learning and memory performance were scored using the Novel Object Recognition Task and using Morris Water Maze trials.
The ability of TMP-N to improve learning and memory in 3×Tg AD mice was assessed using novel object recognition task. […]

For series [1], the system named is Primary neurons treated with Aβ1-42. Briefly: Neuronal survival in primary neuronal cultures treated with pre-aggregated Aβ1-42. Conditions: 50 μM TMP with pre-aggregated Aβ1-42. In kind it is cell-based, C57BL mice. As for the experimental part: Primary neurons prepared from postnatal 1 day C57BL mice were treated with pre-aggregated Aβ1-42 combined with either 50 μM TMP or equal volume of vehicle at day 5 after plating. […] Nuclei were counterstained as blue by Hoechst 33342 (Hoec). Scale bar=100 μm in b & e; 80 μm a, d, f; 60 μm in c; and 40 μm in B.

Another series relates to 3×Tg-AD mouse brain. Briefly: Brain pathology in 3×Tg-AD mice fed TMP-containing diet. The class given is in vivo. As to the method:
(A) 16-month old triple-transgenic mice (3×Tg-AD, females) were fed with TMP containing (300 mg TMP/Kg diet) or nutrients-matched control diet made by BioSery (Frenchtown, N.J.) for 70 days. […] Animals were euthanized and perfused with PBS following behavioral analyses. Half the brain was fixed with 4% paraformaldehyde (PFA) in 1×PBS and sectioned using a microtome at 40 μm, while the other half-brain was dissected and rapidly frozen for biochemical analyses. […] The boxed areas in (a) is shown in (b) at higher magnification. […] The boxed areas in a & c are shown in b & d at higher magnification. Nuclei were stained as red by propidium iodide (PI). Scale bar=400 μm in A.a&c; 100 μm in B.a&c; 80 μm A.d&e, B.d; and 60 μm in A.b, B.b. (C) Glutathione (GSH) contents in the mouse brains were measured in the cortical lysates prepared from the 3×Tg AD mouse brains following TMP treatments or control using a Biovison Glutathione colorimetric detection kit. Lysates from age-matched untreated wild type mouse brains were used as controls (WT).
In these mice, the earliest pathological hallmark is the accumulation of intraneuronal Aβ in the hippocampus, cortex and amygdala in 4 month old 3×Tg-AD homozygous mice. […] Between 4-6 months of age 3×Tg-AD homozygous mice develop diffuse amyloid plaques in the neocortex. At 6 months the retention deficits are associated with significant impairments in spatial learning of the Morris Water Maze task. 16 Month old triple-transgenic female mice (3×Tg-AD) were fed TMP-containing (300 mg TMP/kg diet) or nutrients-matched control diet made by Biosery for 70 days. Brain and retina pathology was evaluated by immunohistochemistry with specific antibodies and learning and memory performance were scored using the Novel Object Recognition Task and using Morris Water Maze trials.

The test system of a further series is Thy1.2 promoter. The series can be described thus: Luciferase-mediated Thy1.2 activity reporter in N2A cells. The class given is cell-based, mouse. Conditions: TMP 50 μM, 24 hr.
In a further series the test system is retinas of 3×Tg-AD mice. Briefly: Retinal pathology in 3×Tg-AD mice. The class given is in vivo.
For series [2], the system named is rat brains following kainate-induced seizures. The series can be described thus: Neuronal degeneration in rat brains following kainate-induced seizures (H&E, TUNEL). The class given is in vivo, Sprague-Dawley rats. Conditions: KA 10.5 mg/Kg s.c., TMP 50 mg/Kg s.c. 1 hr after onset of seizures. As for the experimental part:
One month-old Sprague-Dawley rats were subcutaneously (s.c.) administrated kainite (KA) (10.5 mg/Kg). 1 hr after the onset of seizures animals were given TMP (50 mg/Kg, s.c.) or equal volume of vehicle. All the animals were sacrificed 24 hr after TMP or vehicle injection under deep anesthesia. […] Scale bar=100 μm in b, d, e, g, i, j, 1, n and o; and 400 μm in a, c, f, h, k and m.

Another series concerns 5×FAD mouse brains. The series can be described thus: Abeta immunoreactivity (6E10) in 5×FAD mouse brains. The class given is in vivo, mice. Conditions: chow containing 300 mg/Kg from postnatal day 61 for 4 months.

Structures are written as SMILES. “Also recorded” adds a separate entry of the source.

Excerpt for 5×FAD mouse brains: Animal tissues were perfused with 1×PBS followed by overnight fixation in 4% paraformaldehyde in cold room. Vibrotome sections (˜50 μm thick) were immunostained with 6E10 antibody, which recognizes all forms of Abeta, and visualized by fluorescence microscopy.

As for `Cc1nc(C)c(C)nc1C` [TMP, tetramethylpyrazine], the production of peroxides result in the series on cells under stress is listed as “inhibits the production of peroxides”. For the same molecule, the “Morris water maze (MWM) acquisition performance” value in the series on 3×Tg-AD mice (TMP diet 60 days, trained 9 days from day 62) is “significantly improved the performance of 3×Tg-AD mice”. The “learning and memory (object recognition, MWM probe trials)” value in the series on 3×Tg-AD mice (TMP-containing diet) is “significant improvements in learning and memory; also recorded: improves learning and memory”. In series [1], the “mitochondrial depolarization (TMRM staining)” value was “very few cells”. The “neuronal survival / morphological changes showing neuronal degeneration (DIC microscopy)” value in series [1] (24 hr) is reported as “promotes neuronal survival; also recorded: not in these cells in the presence of TMP”. In addition, the “GFAP staining (astrocyte activation, astrogliosis) in brain” value in the series with 3×Tg-AD mouse brain (300 mg TMP/Kg diet, 70 days) is “dramatically reduced Aβ accumulation and senile plaques as well as astrogliosis; also recorded: reduced intensity of GFAP staining”. Moreover, the “Glutathione (GSH) contents in cortical lysates” value with 3×Tg-AD mouse brain (300 mg TMP/Kg diet, 70 days, colorimetric kit) is recorded as “significantly increase GSH contents”. For the same molecule, the “adverse effects on the health of animals” value in the series on 3×Tg-AD mouse brain (300 mg TMP/Kg diet, about 40~50 mg/Kg daily per os, 70 days) is “no adverse effects on the health of animals have been observed”. Moreover, the “BACE-related APP cleavage and Aβ accumulation in brains” value in the series with 3×Tg-AD mouse brain (3×Tg AD mouse brains) was “reduces BACE-related APP cleavage and Aβ accumulation”. In addition, the “Aβ staining / Aβ accumulation and senile plaques in brain (immunohistochemistry)” value in the series on 3×Tg-AD mouse brain (16-month old females, 300 mg TMP/Kg diet, about 40~50 mg/Kg daily per os, 70 days, 50 mg/kg) is “dramatically reduced Aβ accumulation and senile plaques; also recorded: markedly reduced levels of Aβ staining”. Also, the “Thy1.2 activity (luciferase-positive cells relative to all transfected cells)” value in the series on Thy1.2 promoter is “no influence of TMP on Thy1.2 activity”. In the series on retinas of 3×Tg-AD mice, the “Astrocytic activation in the retinas” value is recorded as “inhibited”; the “Aβ plaques in the retinas” value is reported as “significantly reduces the number if Aβ plaques”; the “fibril and oligomer conformations of Aβ” value is “reduces both fibril and oligomer conformations of Aβ”; the “retinal pathologies associated with disease” value is given as “beneficial effects”. Further, the “Quantification of TUNEL-positive cells in the hippocampal regions” value in series [2] (24 hr) is “significant less number of damaged neurons”. Besides, in series [2] (sacrificed 24 hr after), the “neuronal damage/degeneration by H&E and TUNEL staining, hippocampal and piriform cortex regions” value was “attenuates neuronal degeneration; also recorded: only exhibited a few sporadic pink (1) and TUNEL-positive cells”. Further, the “Abeta immunoreactivity / deposits in brain (6E10)” value in the series on 5×FAD mouse brains is listed as “reduction Abeta immunoreactivity”.
